Literature values, collected in patent publication US10925864B2, “Stable liquid injectable solution of midazolam and pentazocine” (NEON LABORATORIES LIMITED, priority 2015, dated 2021).
Structures can show the parent of a compound that is named as a salt. Where two headings read alike, the source gives them in different places.

How the values were obtained:
[1] = after IM administration in adults
[2] = water / aqueous solutions

Cc1ncc2n1-c1ccc(Cl)cc1C(c1ccccc1F)=NC2 [Midazolam]
Onset time of sedative effects [1]: 15 min
solubility [2]: insoluble in water

Cc1ncc2n1-c1ccc(Cl)cc1C(c1ccccc1F)=NC2 [hydrochloride salt of midazolam, Midazolam hydrochloride]
solubility ([2]; hydrochloride): soluble in aqueous solutions
